Data from patent US20110319484A1, “NEUROPROTECTIVE COMPOUNDS” (Parque Tecnologico de Ciencias de la Salud, priority 2009, published 2011).

Tests used:
mice = test: Antiepileptic effect against kainate administered to mice; type: in vivo, mice (FVB/NHan); conditions: KA 25 mg/kg i.p.
From the text: It is known that the administration of an excitotoxic substance to animals induces, in some cases, epileptic seizures and convulsions. As a result the inventors decided to investigate if the neuroprotective effect of (1S,3R,7S,8S,8aR)-1,2,3,7,8,8a-hexahydro-3,7-dimethyl-8-[2-[(2R,4R)-tetrahydro-4-hydroxy-6-oxo-2H-pyran-2-yl]ethyl-1-naphthalenyl 2,2-dimethylpropanoate (NST0005) was accompanied by an antiepileptic effect caused by an excitotoxic substance.
All the animals included during the experimental process were 12-week old males of the FVB/NHan strain. The experiments were carried out strictly following the Guidance on the Operation of Animals (Scientific Procedures, Act. 1986). The animals had their respective quarantine period and were treated with maximum precaution to minimize possible contaminations for inoculations and handling.
The animals were inoculated intraperitoneally with 25 mg/kg of kainate (KA) dissolved in PBS. Nine animals were pretreated at 24 and 0.5 hours before the inoculation with KA by means of intraperitoneal injection with PBS (PBS+KA administration regimen) and 9 were pretreated at 24 and 0.5 hours before the inoculation with KA by means of intraperitoneal injection with NST0005 at a dose of 50 mg/kg (NST0005+KA administration regimen). After the inoculation, the animals were individually housed in trays to monitor them. The maximum epilepsy level of the animals according to Racine's scale was recorded during the observation every ten minutes and for at least 120 minutes post-inoculation (m.p.i.).
Comparative studies of the epileptogenic phenomena between the treatment with PBS (PBS+KA) and with NST0005 (NST0005+KA) were subsequently conducted, the data of which are shown in Table 1.

[1] = tested on: human neuroblastoma SK-N-MC cells; test: Protection against neuronal death induced by oxidative stress (XXO), WST-1 test; type: cell-based; conditions: XXO 10 μM-60 mU/ml, 22 h, at 10 μg/ml, protection at 4, 10 and 20 μg/ml
Protocol: To perform this assay, the inhibition caused by the NST0005 compound [(1S,3R,7S,8S,8aR)-1,2,3,7,8,8a-hexahydro-3,7-dimethyl-8-[2-[(2R,4R)-tetrahydro-4-hydroxy-6-oxo-2H-pyran-2-yl]ethyl-1-naphthalenyl 2,2-dimethyl-propanoate] of cell death caused by the treatment with xanthine/xanthine oxidase (XXO) which, as has already been mentioned, generates oxidative damage (produces free radicals such as hydrogen peroxide, superoxide anion, hydroxyl radical) which triggers cell death, was analyzed. These cells [SK-N-MC], not exceeding 15 passages, were seeded on 96-well plates treated for adherent cells with a cell concentration of 5×10^4 cells/well; 3 wells of the plate were seeded for each condition of the assay.
After 24 h of cell incubation at 37° C. and 5% CO2, the cell treatments were performed with 100 μl of total volume for the following conditions: (i), control (culture medium); (ii), xanthine/xanthine oxidase (XXO) [10 μM-60 mU/ml]; and (iii), XXO [10 μM-60 mU/ml] and NST0005 at different concentrations [4, 10, 20 and 40 μg/ml].
The cells were incubated (at 37° C. and 5% CO2) with these treatments for 22 h, after which time the WST-1 reagent (Roche) was added. […] The formazan which is formed can be detected colorimetrically since it has an absorbance of 440 nm. The reading was taken in a plate reader at 440 nm 2 hours after adding the reagent. […]

[2] = tested on: caspase 3/7 activation in SK-N-MC cells; test: Inhibition of camptothecin-induced caspase 3/7 activation (Apo-ONE kit); type: cell-based, human; conditions: Homo sapiens, 24 h pretreatment at 100 μg/ml, then camptothecin 50 μM 6 h
Protocol: To that end, the inhibition caused by (1S,3R,7S,8S,8aR)-1,2,3,7,8,8a-hexahydro-3,7-dimethyl-8-[2-[(2R,4R)-tetrahydro-4-hydroxy-6-oxo-2H-pyran-2-yl]ethyl-1-naphthalenyl 2,2-dimethylpropanoate (NST0005) of apoptosis caused by the treatment with camptothecin (Campt) on the SK-N-MC cells in culture was analyzed following the working conditions specified in section 3.1. Apoptosis can be quantified by measuring effector caspase activation. Caspases (proteins belonging to the cysteine-protease group) mediate the cleavage of a series of proteins triggering the signaling cascade which leads cells to apoptosis. […] The active cellular caspases 3 or 7 cause the cleavage of the substrate, emitting fluorescence which is read by means of a fluorometer.
The effect of the pretreatment of the NST0005 compound at 40 and 100 μg/ml on caspase 3/7 activation caused by 50 μM of camptothecin (Campt) in the SK-N-MC cells was thus analyzed. […]
The cells were incubated (at 37° C. and 5% CO2) with these treatments for 6 h, after which time the lysis buffer and the substrate rhodamine 110 were added at the concentrations specified by the manufacturer; they were incubated at room temperature for 30 minutes and the cells were then frozen at −20° C. overnight. They were thawed the next day and the reading of the plate was taken in a fluorometer at 499 nm for excitation and 521 nm for emission.

[3] = NST0005 50 mg/kg i.p. at 24 and 0.5 h before KA, n=9

## C[C@H]1C=C2C=C[C@H](C)[C@H](CC[C@@H]3C[C@@H](O)CC(=O)O3)[C@H]2[C@@H](OC(=O)C(C)(C)C)C1 [NST0005]
mice; [3]
  Animals with convulsions (%): 33.3%
  Animals with status epilepticus (%): 22.2%
  Mortality (%): 11.1%
mice; NST0005 50 mg/kg i.p. pretreatment, at least 120 min observation
  epilepsy level in Racine's scale reached: < 3
mice; NST0005 50 mg/kg i.p. pretreatment, mean±SEM
  latency (time of onset of the first convulsions): 108.9 ± 5.9 min
[1]
  maximum reduction of the percentage of cell death relating to death caused by XXO: 50%
[2]
  inhibition at 100 µg/mL: 33%
